Assay results reported in publication PMC7389528, “Anti-tubercular derivatives of rhein require activation by the monoglyceride lipase Rv0183” (The Cell Surface, 2020).
Converted amounts (≈) assume the structure as drawn. Where two headings read alike, the source gives them in different places.

Columns and labels:
Mtb H37Rv = test: microbe, parasite or virus in culture; type: cell-based; settings: Mycobacterium tuberculosis
Vero cells = test: cells; type: cell-based; settings: Chlorocebus sabaeus, MTT, cytotoxicity
[1] = 50 mM Tris pH 7.5, 200 mM NaCl, no enzyme, 37 °C, 1 h
[2] = Liver microsome stability assay, human; type: in vitro ADME; settings: HLM, with NADPH, after 30 min, 1 μM compound
Method: (§1) The assay was performed with liver microsomes from male CD-1 mouse (Xenotech) and pooled human (Bioreclamation). Compounds HTB-03, HTB-04 and HTB-05 were tested at 1 μM with a final concentration of microsomal protein of 1 mg/mL. The reaction was initiated by the addition of NADPH (1 mM), and samples were incubated for up to […] at 37 °C in a shaking incubator. The reaction was terminated at 0, 5, 15 and 30 min by the addition of ice-cold ACN/MeOH (50:50) spiked with internal standard. Samples were centrifuged at 4000 rpm at 4 °C for 15 min and the supernatants analyzed by LC-MS/MS. The assay evaluated the metabolic stability of compounds by measuring the amount of parent remaining to test compounds with or without NADPH cofactor. LC-MS/MS: AB Sciex 4500 Qtrap; Kinetex 2.6 μm C18 100 Å column (3.0 mm × 30 mm); mobile phase A, 0.1% formic acid in H2O; mobile phase B, 0.1% formic acid in ACN; flow rate, 0.8 mL/min; room temperature.

[3] = Liver microsome stability assay, mouse; type: in vitro ADME, male CD-1 mouse; settings: MLM, with NADPH, after 30 min, 1 μM compound
Method: as §1

[4] = 50 mM Tris pH 7.5, 200 mM NaCl, 2% DMSO
Mtb = test system: Mtb; set-up: method as in Gajadeera et al., 2015; settings: ref Gajadeera et al., 2015, cited from earlier work

Structure (SMILES)	MIC (Mtb H37Rv) [µM]	IC50 (Vero cells) [µM]	stability in the assay conditions (TLC) [1]	Substrate remaining [2] [%]	Substrate remaining [3] [%]	solubility in the assay conditions [4]	anti-tubercular activity (Mtb)	anti-tubercular activity (Mtb; listed as rhein)
CC(=O)Oc1cccc2c1C(=O)c1c(OC(C)=O)cc(C(=O)O)cc1C2=O [Diacerein, diacerein, reference compound]	> 86.9	161	degraded to rhein					
COC(=O)c1cc(O)c2c(c1)C(=O)c1cccc(O)c1C2=O [HTB-01]	6.37 (≈ 1.9 µg/mL)	> 215						
COC(=O)c1cc(OC(C)=O)c2c(c1)C(=O)c1cccc(OC(C)=O)c1C2=O [HTB-02]	5.13 (≈ 1.96 µg/mL)	15.5						
O=C(OCCCCCl)c1cc(O)c2c(c1)C(=O)c1cccc(O)c1C2=O [HTB-03]	2.56 (≈ 0.959 µg/mL)	> 171	appeared stable	92.8	66.3			
CC(=O)Oc1cccc2c1C(=O)c1c(OC(C)=O)cc(C(=O)OCCCCCl)cc1C2=O [HTB-04]	3.55 (≈ 1.63 µg/mL)	84		82.4	79.8	limited solubility		
CC1CCCC(C)C1OC(=O)c1cc(O)c2c(c1)C(=O)c1cccc(O)c1C2=O (stereo not shown) [HTB-05]	3.9 (≈ 1.54 µg/mL)	> 162		67.8	42.9			
CC(=O)Oc1cccc2c1C(=O)c1c(OC(C)=O)cc(C(=O)OC3C(C)CCCC3C)cc1C2=O (stereo not shown) [HTB-06]	7.31 (≈ 3.5 µg/mL)	58.1						
NNC(=O)c1ccncc1 [INH, isoniazid, reference compound]	0.26 (≈ 0.0357 µg/mL)							
O=C(O)c1cc(O)c2c(c1)C(=O)c1cccc(O)c1C2=O [Rhein, rhein]	106 (≈ 30.2 µg/mL)	182					does not exhibit anti-tubercular activity	does not inhibit Mtb
